Converted amounts (≈) assume the structure as drawn.
Assay: aqueous solubility
Format: physicochemical
Conditions: aqueous medium, aqueous buffer; at all relevant physiological pH

In the case of `Fc1ccc2nc(CCC#Cc3ccccn3)cn2c1` [free base, 6-Fluoro-2-[4-(pyridin-2-yl)but-3-yn-1-yl]imidazo[1,2-a]pyridine], the solubility is reported as 0.5 mg/mL (≈ 1880 µM).

With `Fc1ccc2nc(CCC#Cc3ccccn3)cn2c1.O=P(O)(O)O` [mono-phosphate salt, 6-fluoro-2-[4-(pyridin-2-yl)but-3-yn-1-yl]imidazo[1,2-a]pyridine mono-phosphate salt] the solubility was 21 to 32.5 mg/mL.

Source: patent US9938270B2, “Mono-phosphate salt of 6-fluoro-2-[4-(pyridin-2-yl)but-3-yn-1-yl]imidazo[1,2A]pyridine (dipraglurant) and polymorphs thereof as negative allosteric modulator of MGLU5 receptor” (Addex Pharma S.A., priority 2013, dated 2018)
